Data published in patent publication US12383551B2, “Methods and compositions for maintaining opioid efficacy in the treatment of pain” (East Carolina University, priority 2017, dated 2025).

How the values were obtained:
sham or SCI animals = test: Conditioned Place Preference (CPP), addictive potential; details: for CPP to morphine: added to morphine at either dose (1.0 or 2.5 mg/kg), sham or SCI animals
Experimental: Methods: 55 female, Long-Evans rats were tested for mechanical thresholds prior to receiving a spinal contusion (SCI) or sham surgery. […] Conditioned Place Preference (CPP) to each drug combination was assessed to determine the addictive potential of that specific combination.
Mechanical thresholds were assessed in 3-5 month old female Long-Evans rats before and ˜21 days after a mild, traumatic SCI (contusion model). […] Conditioned place preference was performed under each drug condition (5 days alternating drug/vehicle pairing, with testing on day 6).

[1] = tested on: rat model of chronic neuropathic pain; test: Pain withdrawal responses in a rat model of chronic neuropathic pain (pilot studies); format: in vivo; details: low-dose morphine
SCI animals = test: Mechanical pain thresholds / analgesia in animals with spinal cord injury (contusion model); format: in vivo, Long-Evans rats; details: FIG. 2 Panel B
Experimental: (§1) Methods: 55 female, Long-Evans rats were tested for mechanical thresholds prior to receiving a spinal contusion (SCI) or sham surgery. Mechanical pain thresholds were measured 21-27 days post-surgery under the following conditions: Morphine alone (1.0 or 2.5 mg/kg); Morphine (1.0 or 2.5 mg/kg)+0.1 mg/kg Pramipexole (PRAM; D3R agonist); Morphine (2.5 mg/kg)+0.1 mg/kg SCH23390 (SCH: D1R antagonist); 0.1 mg/kg Pramipexole alone; 0.1 mg/kg SCH23390 alone. Conditioned Place Preference (CPP) to each drug combination was assessed to determine the addictive potential of that specific combination.
(§2) Mechanical thresholds were assessed in 3-5 month old female Long-Evans rats before and ˜21 days after a mild, traumatic SCI (contusion model). Thresholds were re-assessed after i.p. injection of: Morphine 1.0 mg/kg with and without 0.1 mg/kg pramipexole (PRAM) or Morphine 2.5 mg/kg with and without 0.1 mg/kg PRAM. Conditioned place preference was performed under each drug condition (5 days alternating drug/vehicle pairing, with testing on day 6). Western blotting determined expression of D3R, D1R and u-opioid receptor (MOR) in the lumbar spinal cord.

sham animals = test: Mechanical pain thresholds / analgesia in sham (healthy control) animals; format: in vivo, Long-Evans rats; details: FIG. 2 Panel A, acute treatment
Experimental: as §1, §2

Compound | CPP to morphine (sham or SCI animals) | preference for the drug-paired chamber (sham or SCI animals; FIG. 4) | analgesic effect after long-term application (animals; FIG. 3, long-term application, 2 weeks) | development of morphine tolerance (animals; parallel preliminary studies) | modulating pain withdrawal responses / opioid efficacy [1] | analgesia (SCI animals) | analgesia (sham animals)
CCCN[C@H]1CCc2nc(N)sc2C1 [PRAM, pramipexole] | Neither PRAM nor SCH exacerbated CPP to morphine | – | – | – | – | – | –
CN1CCc2cc(Cl)c(O)cc2[C@@H](c2ccccc2)C1 [SCH, SCH23390] | Neither PRAM nor SCH exacerbated CPP to morphine | – | – | – | – | – | –
CN1CC[C@]23c4c5ccc(O)c4O[C@H]2[C@@H](O)C=C[C@H]3[C@H]1C5 [morphine] | – | induces preference for the drug-paired chamber | complete loss of analgesic effect after 2 weeks | became tolerant | became ineffective | neither morphine nor PRAM have any analgesic effect | improves analgesia significantly
